{"source": "patent US20110112463A1", "about": "“COMPOSITIONS AND METHODS FOR TREATING A NEURONAL INJURY OR NEURONAL DISORDERS” (priority 2009, published 2011)", "tested_on": "NMDA receptors", "test": "NMDA receptor blockade with MK-801 before intermittent photostimulation of ChR2 animals, diaphragmatic EMG", "format": "in vivo, Sprague Dawley rats", "excerpt": "Four days after C2 hemisection and/or virus injection, the animals were anesthetized as above and prepared for light treatment and physiological recordings. In a room where all light was eliminated except for that needed to accomplish the surgical procedures, approximately an eight cm incision was made at the base of the ribcage to expose the abdominal surface of the diaphragm. Bipolar electrodes, connected to an amplifier and data acquisition set-up (CED 1401/Spike2 Data Analysis Computer Interface, Cambridge Electronic Design), were inserted into both left and right hemidiaphragms to record diaphragmatic activity. After this, the cervical area of the spinal cord was reopened again for exposure to photostimulation at a wavelength of 475 nm, i.e., blue light. The light source was a portable unit capable of producing light at various wavelengths through a fiber optic cable (Model Lambda DG-4, Sutter Instrument). Diaphragmatic motor activity was recorded before, during, and after stimulation. During recording, the animals were placed on a circulating warm water blanket to maintain body temperature. The initial protocol used for photostimulation included sustained exposure (1 min) of the C3-C6 spinal cord from the light source, as well as, intermittent exposure to light at about once per second for 1 min. […] This protocol was adapted from the long-term facilitation induction protocol of 5 min normoxia followed by 5 min hypoxia (Fuller et al., 2003; Golder and Mitchell, 2005). The intermittent stimulation consisted of light exposure at 0.5 Hz, with each flash of light 1 s long.\nTo block NMDA receptors, 500 μl of 10 μM MK-801 (Sigma), a noncompetitive NMDA receptor antagonist, diluted in PBS, was applied to the exposed spinal cord. MK-801 was administered after 5 min of baseline recording. Recording with MK-801 continued for 5 more minutes before intermittent photostimulation and thereafter as described above.\nAfter recording, the raw diaphragmatic EMG signal was rectified and integrated using Spike2 software. Frequency was determined by counting total breaths for 5 min before and after photostimulation. Peak amplitude and burst duration of inspiratory bursts were measured through Spike2, for at least 25 breaths before and after stimulation. Poststimulation analyses of ChR2 animals were made during regular patterned respiratory related diaphragmatic EMG activity. All values were standardized to prestimulation measures. Statistical analysis was performed using ANOVA and Tukey's post hoc analysis. All values with a p value <0.05 were considered significant. All error bars indicate SEs.", "note": "“Also recorded” adds a separate entry of the source.", "data": [{"smiles": "C[C@]12N[C@H](Cc3ccccc31)c1ccccc12", "note": "[MK-801]", "values": [{"measurement": "effect on light-induced change in diaphragmatic EMG activity", "setting": "500 μl of 10 μM MK-801 in PBS on exposed C3-C6 spinal cord, ipsilateral and contralateral", "value": "failed to elicit any kind of change in diaphragmatic EMG activity; also recorded: eliminated cycling of increasing diaphragmatic EMG activity"}, {"measurement": "animals in which intermittent photostimulation failed to elicit any change in EMG activity", "setting": "500 μl of 10 μM MK-801 on exposed C3-C6 spinal cord", "value": "four of six"}, {"measurement": "frequency of breaths before and after stimulation", "setting": "FIG. 4A", "value": "no change"}, {"measurement": "effect on photostimulation-induced increase of peak EMG amplitude during inspiratory bursts", "setting": "FIG. 4B, brought back to control levels", "value": "abolished"}, {"measurement": "effect on photostimulation-induced increase in duration of EMG inspiratory bursts", "setting": "FIG. 4C, brought back to control levels", "value": "attenuated"}]}]}
